# From patent US11583538B2, “Substituted pyrrolo[1,2-a]pyrazines and pyrrolo[1,2-a][1,4]diazepines as TREX1 inhibitors” (Venenum Biodesign, LLC, priority 2019, dated 2023)
# Molecular target: human TREX1 (Homo sapiens (Human), UniProt Q9NSU2)
# Test: TREX1 Exonuclease Assay
# Type: biochemical
# Experimental: For human TREX1, the nucleotide sequence of the gene construct was codon optimized for expression in the bacterial host. The sequence was incorporated into the pMAL-c5e vector (NEB) downstream of a solubility-promoting MBP (maltose binding protein) fusion partner. The fusion protein product was expressed in E. coli strain BL21 (DE3) (Millipore) and purified in a series of chromatographic steps. Initial steps were conducted using a dextrin sepharose affinity column followed by a Q-sepharose ion exchange column (both GE Healthcare). After the second column the MBP partner was removed by incubation with enterokinase (NEB). Further purification was carried out with the second application of a Q-sepharose column followed by a Superdex 75 (GE Healthcare) size exclusion column. Finally, a heparin sepharose column (GE Healthcare) was applied to remove contaminating nucleotides.
# To evaluate the effect of compounds on TREX1 activity, test compounds were serially diluted (11-point, 3-fold) from 10 mM stock solutions and delivered to 384-well low-volume assay plates in 80 nL DMSO using an acoustic dispenser. Next, 4 μL of human TREX1 (0.5 nM), or murine TREX1 (1 nM), diluted in assay buffer (20 mM Tris pH 7.5, 5 mM MgCl2, 100 μg/mL BSA, 0.002% Triton X-100, 2 mM DTT), was added to the assay plate. After incubating for 30 minutes, 4 μL of labeled DNA oligonucleotide (500 nM) in assay buffer was added to initiate TREX1 exonuclease activity. The reaction was allowed to proceed for 45 minutes at room temperature prior to the addition of 4 μL of 150 mM EDTA to halt TREX1 activity.
# Sequence of human TREX1 (Q9NSU2 whole entry): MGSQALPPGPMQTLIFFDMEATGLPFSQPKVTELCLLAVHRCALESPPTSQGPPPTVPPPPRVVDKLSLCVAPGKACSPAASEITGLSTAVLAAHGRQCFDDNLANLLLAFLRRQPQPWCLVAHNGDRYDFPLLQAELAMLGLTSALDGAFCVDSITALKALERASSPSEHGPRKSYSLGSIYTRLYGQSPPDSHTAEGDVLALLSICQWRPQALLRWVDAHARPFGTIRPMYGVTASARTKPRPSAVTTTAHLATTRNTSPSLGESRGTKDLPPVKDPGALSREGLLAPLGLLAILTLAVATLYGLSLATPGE
row,SMILES,IC50 [nM]
1,NC(=O)CC[C@H](C(=O)N1Cc2cc(Cl)c(Cl)cc2C1)N1CCC(CCc2ccccc2)N2C[C@H](N)C[C@H]2C1=O (stereo partly drawn) [Example 20],10000 to 100000
2,COc1cc(Cl)c(Cl)cc1CNC(=O)[C@@H](CCC(=O)O)N1CCC(CCc2ccccc2)N2C[C@H](N)C[C@H]2C1=O (stereo partly drawn) [Example 21],< 1000
3,NC(=O)C[C@H](C(=O)NCc1ccc(Cl)c(Cl)c1)N1CCC(CCc2ccccc2)N2C[C@H](N)C[C@H]2C1=O (stereo partly drawn) [Example 23],< 1000
4,N=C(N)NCCC[C@H](C(=O)NCc1ccc(Cl)c(Cl)c1)N1CCC(CCc2ccccc2)N2C[C@H](N)C[C@H]2C1=O (stereo partly drawn) [Example 24],< 1000
5,N[C@@H]1C[C@H]2C(=O)N([C@H](CCC(=O)O)C(=O)NCc3ccc(Cl)c(Cl)n3)CCC(CCc3ccccc3)N2C1 (stereo partly drawn) [Example 25],< 1000
6,N[C@@H]1C[C@H]2C(=O)N([C@H](CCC(=O)O)C(=O)N3CCCC[C@H]3c3ccc(Cl)c(Cl)c3)CCC(CCc3ccccc3)N2C1 (stereo partly drawn) [Example 26],< 1000
7,N[C@@H]1C[C@H]2C(=O)N([C@H](CCC(=O)O)C(=O)N3CCC[C@H]3c3ccc(Cl)c(Cl)c3)CCC(CCc3ccccc3)N2C1 (stereo partly drawn) [Example 27],< 1000
8,N[C@@H]1C[C@H]2C(=O)N([C@H](CCC(=O)O)C(=O)NCc3cc(Cl)c(Cl)cn3)CCC(CCc3ccccc3)N2C1 (stereo partly drawn) [Example 28],< 1000
9,N[C@@H]1C[C@H]2C(=O)N([C@H](CCC(=O)O)C(=O)NCc3cc(Cl)c(Cl)cc3F)CCC(CCc3ccccc3)N2C1 (stereo partly drawn) [Example 31],< 1000
10,N[C@@H]1C[C@H]2C(=O)N([C@H](CCC(=O)O)C(=O)N3CCOC[C@H]3c3ccc(Cl)c(Cl)c3)CCC(CCc3ccccc3)N2C1 (stereo partly drawn) [Example 32],< 1000
11,N[C@@H]1C[C@H]2C(=O)N([C@H]3CCN(Cc4ccc(Cl)c(Cl)c4)C3=O)CCC(CCc3ccccc3)N2C1 (stereo partly drawn) [Example 33],< 1000
12,N[C@@H]1C[C@H]2C(=O)N([C@H]3CCCN(Cc4ccc(Cl)c(Cl)c4)C3=O)CCC(CCc3ccccc3)N2C1 (stereo partly drawn) [Example 34],< 1000
13,N[C@@H]1C[C@H]2C(=O)N([C@@H]3CCCN(Cc4ccc(Cl)c(Cl)c4)C3=O)CCC(CCc3ccccc3)N2C1 (stereo partly drawn) [Example 35],< 1000
14,NC(=O)C[C@H](C(=O)NCc1ccc(Cl)c(Cl)n1)N1CCC(CCc2ccccc2)N2C[C@H](N)C[C@H]2C1=O (stereo partly drawn) [Example 36],< 1000
15,Cn1c(Cl)ccc(CNC(=O)[C@@H](CCC(=O)O)N2CCC(CCc3ccccc3)N3C[C@H](N)C[C@H]3C2=O)c1=O (stereo partly drawn) [Example 37],< 1000
16,N[C@@H]1C[C@H]2C(=O)N(c3cccn(Cc4ccc(Cl)c(Cl)c4)c3=O)CCC(CCc3ccccc3)N2C1 (stereo partly drawn) [Example 38],< 1000
17,CC(C)C[C@H](C(=O)NCc1cccc(Cl)c1)N1CCC(CCc2ccccc2)N2C[C@H](N)C[C@H]2C1=O (stereo partly drawn) [Example 43],1000 to 9990
18,CC(C)C[C@H](C(=O)NCc1ccccc1Cl)N1CCC(CCc2ccccc2)N2C[C@H](N)C[C@H]2C1=O (stereo partly drawn) [Example 44],< 1000
19,CC(C)C[C@H](C(=O)NCc1ccc(Cl)cc1Cl)N1CCC(CCc2ccccc2)N2C[C@H](N)C[C@H]2C1=O (stereo partly drawn) [Example 48],1000 to 9990
20,CC(C)C[C@H](C(=O)NCc1ccc(C#N)cc1)N1CCC(CCc2ccccc2)N2C[C@H](N)C[C@H]2C1=O (stereo partly drawn) [Example 49],< 1000
21,CC(C)C[C@H](C(=O)NCc1cc(Cl)cc(Cl)c1)N1CCC(CCc2ccccc2)N2C[C@H](N)C[C@H]2C1=O (stereo partly drawn) [Example 50],1000 to 9990
22,CC(C)C[C@H](C(=O)NCc1ccc(F)c(F)c1)N1CCC(CCc2ccccc2)N2C[C@H](N)C[C@H]2C1=O (stereo partly drawn) [Example 53],< 1000
23,CC(C)C[C@H](C(=O)NCc1ccc(Cl)c(F)c1)N1CCC(CCc2ccccc2)N2C[C@H](N)C[C@H]2C1=O (stereo partly drawn) [Example 54],< 1000
24,CC(C)C[C@H](C(=O)NCc1ccc(Cl)c(C(F)(F)F)c1)N1CCC(CCc2ccccc2)N2C[C@H](N)C[C@H]2C1=O (stereo partly drawn) [Example 55],< 1000
25,CC(C)C[C@H](C(=O)NCc1ccc(C(F)(F)F)c(F)c1)N1CCC(CCc2ccccc2)N2C[C@H](N)C[C@H]2C1=O (stereo partly drawn) [Example 56],< 1000
26,Cc1ccc(CNC(=O)[C@@H](CC(C)C)N2CCC(CCc3ccccc3)N3C[C@H](N)C[C@H]3C2=O)cc1Cl (stereo partly drawn) [Example 57],< 1000

row,SMILES,IC50 [nM]
1,COc1ccc(CNC(=O)[C@@H](CC(C)C)N2CCC(CCc3ccccc3)N3C[C@H](N)C[C@H]3C2=O)cc1Cl (stereo partly drawn) [Example 58],< 1000
2,COc1ccc(CNC(=O)[C@@H](CC(C)C)N2CCC(CCc3ccccc3)N3C[C@H](N)C[C@H]3C2=O)cc1 (stereo partly drawn) [Example 59],< 1000
3,CC(C)C[C@H](C(=O)N(C)Cc1ccc(Cl)c(Cl)c1)N1CCC(CCc2ccccc2)N2C[C@H](N)C[C@H]2C1=O (stereo partly drawn) [Example 60],< 1000
4,CC(C)C[C@H](C(=O)NS(=O)(=O)c1ccccc1)N1CCC(CCc2ccccc2)N2C[C@H](N)C[C@H]2C1=O (stereo partly drawn) [Example 61],< 1000
5,CC(C)C[C@H](C(=O)NS(=O)(=O)c1ccc(Cl)c(Cl)c1)N1CCC(CCc2ccccc2)N2C[C@H](N)C[C@H]2C1=O (stereo partly drawn) [Example 62],1000 to 9990
6,"N#CC[C@H](C(=O)NCc1ccc(Cl)cn1)N1CCC(CCc2ccccc2)N2C[C@H](N)C[C@H]2C1=O (stereo partly drawn) [Example 63, (2R)-2-((8R,9aS)-8-amino-1-oxo-5-phenethylhexahydro-1H-pyrrolo[1,2-a][1,4]diazepin-2(3H)-yl)-N-((5-chloropyridin-2-yl)methyl)-3-cyanopropanamide.HCOOH]",< 1000
7,N#CC[C@H](C(=O)NCc1ccc(Cl)c(C(F)(F)F)c1)N1CCC(CCc2ccccc2)N2C[C@H](N)C[C@H]2C1=O (stereo partly drawn) [Example 64],< 1000
8,CN(Cc1ccc(Cl)c(Cl)c1)C(=O)[C@@H](CC#N)N1CCC(CCc2ccccc2)N2C[C@H](N)C[C@H]2C1=O (stereo partly drawn) [Example 65],< 1000
9,N#CC[C@H](C(=O)N1CCc2cc(Cl)c(Cl)cc2C1)N1CCC(CCc2ccccc2)N2C[C@H](N)C[C@H]2C1=O (stereo partly drawn) [Example 66],1000 to 9990
10,N#CC[C@H](C(=O)N1CCc2c(ccc(Cl)c2Cl)C1)N1CCC(CCc2ccccc2)N2C[C@H](N)C[C@H]2C1=O (stereo partly drawn) [Example 67],1000 to 9990
11,N#CC[C@H](C(=O)N1CCOC[C@@H]1c1ccccc1)N1CCC(CCc2ccccc2)N2C[C@H](N)C[C@H]2C1=O (stereo partly drawn) [Example 68],10000 to 100000
12,N#CC[C@H](C(=O)N1CCOC[C@H]1c1ccccc1)N1CCC(CCc2ccccc2)N2C[C@H](N)C[C@H]2C1=O (stereo partly drawn) [Example 69],1000 to 9990
13,"N[C@@H]1C[C@H]2C(=O)N([C@H](CCC(=O)O)C(=O)NCc3ccc(Cl)cn3)CCC(CCc3ccccc3)N2C1 (stereo partly drawn) [Example 70, (4R)-4-((8R,9aS)-8-amino-1-oxo-5-phenethylhexahydro-1H-pyrrolo[1,2-a][1,4]diazepin-2(3H)-yl)-5-(((5-chloropyridin-2-yl)methyl)amino)-5-oxopentanoic Acid]",< 1000
14,"N[C@@H]1C[C@H]2C(=O)N([C@H](CCC(=O)O)C(=O)NCc3ccc(Cl)c(Cl)c3)CCC(CCOc3ccccc3)N2C1 (stereo partly drawn) [Example 71, (4R)-4-((8R,9aS)-8-amino-1-oxo-5-(2-phenoxyethyl)hexahydro-1H-pyrrolo[1,2-a][1,4]diazepin-2(3H)-yl)-5-((3,4-dichlorobenzyl)amino)-5-oxopentanoic Acid]",1000 to 9990
15,"COc1ccc(OCC2CCN([C@H](CCC(=O)O)C(=O)NCc3ccc(Cl)c(Cl)c3)C(=O)[C@@H]3C[C@@H](N)CN23)cc1 (stereo partly drawn) [Example 72, (4R)-4-((8R,9aS)-8-amino-5-((4-methoxyphenoxy)methyl)-1-oxohexahydro-1H-pyrrolo[1,2-a][1,4]diazepin-2(3H)-yl)-5-((3,4-dichlorobenzyl)amino)-5-oxopentanoic Acid]",1000 to 9990
16,Cc1ccc(OCC2CCN([C@H](CCC(=O)O)C(=O)NCc3ccc(Cl)c(Cl)c3)C(=O)[C@@H]3C[C@@H](N)CN23)cc1 (stereo partly drawn) [Example 73],1000 to 9990
17,N[C@@H]1C[C@H]2C(=O)N([C@H](CCC(=O)O)C(=O)NCc3ccc(Cl)c(Cl)c3)CCC(COc3ccc(Cl)cc3)N2C1 (stereo partly drawn) [Example 74],< 1000
18,N[C@@H]1C[C@H]2C(=O)N([C@H](CCC(=O)O)C(=O)NCc3ccc(Cl)c(Cl)c3)CCC(COc3ccc(F)cc3)N2C1 (stereo partly drawn) [Example 75],< 1000
19,N[C@@H]1C[C@H]2C(=O)N([C@H](CCC(=O)O)C(=O)NCc3ccc(Cl)c(Cl)c3)CCC(COc3cccc(Cl)c3)N2C1 (stereo partly drawn) [Example 76],< 1000
20,N[C@@H]1C[C@H]2C(=O)N([C@H](CCC(=O)O)C(=O)NCc3ccc(Cl)c(Cl)c3)CCC(COc3ccccc3Cl)N2C1 (stereo partly drawn) [Example 78],< 1000
21,N[C@@H]1C[C@H]2C(=O)N([C@H](CCC(=O)O)C(=O)NCc3ccc(Cl)c(Cl)c3)CCC(COc3cnccn3)N2C1 (stereo partly drawn) [Example 80],1000 to 9990
22,N[C@@H]1C[C@H]2C(=O)N([C@@H]3CCCN(S(=O)(=O)c4ccccc4)C3)CCC(CCc3ccccc3)N2C1 (stereo partly drawn) [Example 84],10000 to 100000
23,N[C@@H]1C[C@H]2C(=O)N([C@@H]3CCCN(C(=O)c4ccc(Cl)c(Cl)c4)C3)CCC(CCc3ccccc3)N2C1 (stereo partly drawn) [Example 85],10000 to 100000
24,N[C@@H]1C[C@H]2C(=O)N([C@H]3CCCN(S(=O)(=O)c4ccc(Cl)c(Cl)c4)C3)CCC(CCc3ccccc3)N2C1 (stereo partly drawn) [Example 86],1000 to 9990
25,N[C@@H]1C[C@H]2C(=O)N([C@H]3CCCN(C(=O)c4ccc(Cl)c(Cl)c4)C3)CCC(CCc3ccccc3)N2C1 (stereo partly drawn) [Example 87],10000 to 100000
